The results in this text go back to the METLIN SMRT retention time set (Domingo-Almenara et al. 2019).

A short description of the data set: gradient 5% acetonitrile 3 min, to 50% in 2 min, to 85% in 15 min, held 3 min, 100 µL/min. The note with it: column: Zorbax Extend-C18 2.1 x 50 mm; eluents: water / acetonitrile, 0.1% formic acid. An outline of the steps:
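Each retention time is based on an adduct peak selected computationally and verified by manual inspection. Measurements used HPLC–quadrupole time-of-flight mass spectrometry in positive and negative ionization mode on mixtures of ~100 pure standards. Chromatography ran on a Zorbax Extend-C18 column (2.1 × 50 mm, 1.8 μm) at 100 μL/min with water and acetonitrile, each containing 0.1% formic acid, and dead and dwell volumes of 40 μL and 900 μL.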
On to `Cc1nn(CC(=O)NC(C)(C)C)c(=O)c2c(C)n(-c3ccccc3)nc12`, for which the RP-LC retention time turned out to be 768 s.
With `COc1cc(OC)cc(C(=O)N2CCC3(CC2)NC(=O)c2cc(Cl)ccc2N3C)c1`, the RP-LC retention time was 826 s.
The same measure for `O=c1c2cnc3nc(-c4ccccc4Cl)nn3c2ccn1CCc1c[nH]c2ccc(F)cc12`: 947 s; for `CC(=O)N1CCc2cc(CNS(=O)(=O)c3ccc(F)cc3)ccc21`: 738 s.
As for `CC1(C)CC(=O)C2=C(C1)N(CCCN1CCOCC1)C(=O)C2(NC(=O)c1ccccc1)C(F)(F)F` (centres undefined), the figure is 634 s.
The same measure for `CCOC(=O)N1CCC(NC(=O)Cn2ccc3ccccc32)CC1`: 731 s.
`Cc1ccc(C2c3[nH]c4ccccc4c3CCN2C(=O)c2ccnn2C)cc1` (centres undefined) registered an RP-LC retention time of 673 s.
As for `CCc1nc(-c2c(C)cc(C)nc2NC(=O)c2ccccc2Br)no1`, the figure is 828 s; as for `COc1ccc(S(=O)(=O)N2CCCC(C(=O)Nc3ccc4c(c3)OCCO4)C2)cc1Cl` (centres undefined), 938 s.
For `O=C(Cn1nc2nc(N3CCCC3)ccn2c1=O)NCc1ccc(Cl)cc1`, the RP-LC retention time worked out at 690 s.
The same measure for `C=CCn1c(C)c(CC(=O)NC2CCCC2)c(=O)n2nc(-c3ccccc3)nc12`: 684 s; for `Cc1noc(-c2nn(C)c3c2CN(C(=O)Nc2cccc(F)c2)CC3)n1`: 744 s; for `Cc1oc(-c2ccc(NC(=O)Cc3ccccc3Cl)cc2)nc1Cn1cccn1`: 899 s.
`O=C(N[C@H]1C[C@@H]2C[C@H]1CN2C(=O)Nc1ccc2c(c1)OCCO2)c1ccccc1` yielded an RP-LC retention time of 937 s.
As for `COC(=O)C(NC(=O)N1CCCn2nc(-c3ccc(OC)cc3)cc2C1)c1ccccc1` (centres undefined), the figure is 758 s.
The same measure for `CCOc1ccc(N2CC(c3nc(-c4cccnc4)no3)CC2=O)cc1` (centres undefined): 759 s; for `COc1ccc(C(=O)N2CCCC(COc3ccc(C(=O)NC(C)C)cc3)C2)cc1F` (centres undefined): 846 s.
As for `COc1ccccc1-c1noc(C2CCCN2C(=O)c2ccccc2C)n1` (centres undefined), the figure is 896 s.
On to `c1ccc2nc(OCCN3CC3)ccc2c1`, for which the RP-LC retention time came to 727 s.
Molecule `CCC(C)NC(=O)N1CCCN(C2=NS(=O)(=O)C(c3ccc(C)cc3)=C2C)CC1` (centres undefined) yielded an RP-LC retention time of 816 s.
The same measure for `COC(=O)c1c(C)c(C(=O)C(C)N(Cc2ccc(F)cc2)C(=O)C2CC2)c(C)n1C` (centres undefined): 917 s; for `O=C(CN1CCN(C(=O)Nc2ccc(F)cc2)CC1=O)NC1CCCCC1`: 701 s.
The same measure for `COC(=O)C1=C(CN2CCOCC2)NC(=O)NC1c1ccc(Cl)cc1` (centres undefined): 566 s; for `O=C(NCCc1ccccc1)N1CCN(c2ncccc2-c2nnc(C3CC3)o2)CC1`: 765 s; for `CC(=O)Nc1ccccc1SC(CC(=O)c1ccco1)c1ccc2c(c1)OCO2` (centres undefined): 858 s.
`CCCN1CCN(C(=O)c2nc(N3CCSCC3)c3cnn(C)c3n2)CC1` showed an RP-LC retention time of 576 s.
As for `COc1ccc2c(c1)C1(CCN(C(=O)C(C)C)C1)C(=O)N2C` (centres undefined), the figure is 701 s; as for `CCCN1CCN(C(=O)c2cnn(-c3cc(-c4nc(C(C)(C)C)no4)ccn3)c2C)CC1`, 715 s.
As for `CCn1c(N2CCCC(C(=O)NCc3ccccc3F)C2)cc(=O)n(C)c1=O` (centres undefined), the figure is 776 s; as for `Cc1nnc2sc(-c3cccs3)nn2c1=O`, 664 s; as for `O=C(NCc1csc(-c2cccs2)n1)C1CCN(C(=O)CCc2ccccc2)CC1`, 805 s.
As for `O=C(N1CCC(Cc2nc(-c3ccc(F)cc3)no2)CC1)C1(c2ccccc2)CC1`, the figure is 1020 s; as for `Cc1ccc(Cl)cc1NS(=O)(=O)c1ccc(-c2c(C)noc2C)cc1`, 1010 s; as for `O=C(Cn1cccc1-c1nc(-c2ccc3c(c2)OCO3)no1)N1CCN(c2ccccc2)CC1`, 1070 s.
Molecule `Cn1nc(-c2nnc(-c3ccccc3)o2)c2c1CCN(S(=O)(=O)c1ccccc1C(F)(F)F)C2` displayed an RP-LC retention time of 990 s.
Consider `Cc1sc(NC(=O)CC(C)C)nc1-c1ccc2c(c1)N(C)C(=O)CO2`, for which the RP-LC retention time worked out at 910 s.
With `CCOC(=O)c1c(C)[nH]c(C(=O)N2CCC(C(C)C(=O)N3CCCC3)CC2)c1C` (centres undefined), the RP-LC retention time came to 715 s.
As for `O=C(Cn1cccc1-c1nnc(-c2ccccc2)o1)N1CCc2ccccc2C1`, the figure is 986 s; as for `CC(C)Cn1c(=O)c(C(=O)NC2CCCCCC2)nc2cccnc21`, 1090 s; as for `CC1=C(c2ccc(C(C)C)cc2)S(=O)(=O)N=C1N1CCC(C(=O)NCC2CCCO2)CC1` (centres undefined), 820 s.
`COc1ccc(C2(c3nc(C4CC(=O)N(c5ccc(C)cc5)C4)no3)CC2)cc1` (centres undefined) registered an RP-LC retention time of 1060 s.
As for `O=S(=O)(Cc1ccccc1F)N1CCC[C@H]1c1nc(-c2ccc(F)cc2)n[nH]1`, the figure is 837 s.
For `O=[N+]([O-])c1c(NCCO)cc(N2CCN(c3ccccn3)CC2)c2nonc12`, the RP-LC retention time was found to be 579 s.
As for `O=c1cc(CSc2nnc(-c3ccccc3F)o2)nc2sccn12`, the figure is 745 s.
As for `COc1ccc(S(=O)(=O)N2CCCC(C(=O)NC3CCCCC3)C2)cc1C` (centres undefined), the figure is 962 s.
The same measure for `COc1ccc(OC)c(NC(=O)Cc2csc3nc(-c4cccc(Br)c4)cn23)c1`: 1010 s; for `CCN1CCN(CCNC(=O)c2cnc(-c3ccc(C)cc3)nc2-c2ccncc2)CC1`: 598 s; for `COc1ccc(OC)c(NC(=O)Cn2cnc3cc4c(cc32)OCCO4)c1`: 641 s.
Take `O=C(CN1C(=O)CC(c2cccs2)=Nc2ccccc21)Nc1ccccc1F`: the RP-LC retention time worked out at 910 s.
As for `Cc1sc(-c2noc(C(C)C)n2)cc1S(=O)(=O)N1CCC(C(=O)NCc2cccs2)CC1`, the figure is 1030 s; as for `CCc1c(C2CCN(C(=O)c3cc(C)oc3C)CC2)noc1N`, 704 s; as for `COc1c(C(=O)NCc2ccc3c(c2)OCO3)sc2cc(Cl)ccc12`, 1070 s.
As for `Clc1ccc(-c2nc(N3CCCC3)c3ccccc3n2)cc1`, the figure is 726 s; as for `CN1c2cc(Cl)ccc2C(=O)NC12CCN(C(=O)Nc1ccccc1)CC2`, 795 s; as for `O=C(NCc1ccco1)C1CCCN(c2ccc(=O)n(-c3cccc(Cl)c3)n2)C1` (centres undefined), 808 s.
The same measure for `Fc1ccc(Nc2nc(NCC3CCCO3)nc3c2cnn3-c2ccccc2)cc1` (centres undefined): 1050 s.
`O=C(c1cn(-c2cc(N3CCSCC3)ncn2)cn1)N1CCC(Cc2ccccc2)CC1`: the RP-LC retention time worked out at 1090 s.
As for `CC(=O)N1CCC(C(=O)N2CCCCCCNC(=O)[C@@H]3CCCC[C@@H]32)CC1`, the figure is 657 s; as for `COc1ccc(-c2c(C)noc2NC(C)=O)cc1S(=O)(=O)N1CCCCCC1`, 788 s.
As for `NC(=O)c1ccccc1NC(=O)C1CN(c2nc3c(F)cccc3s2)C1`, the figure is 706 s.
In the case of `CCOC(=O)C1CCCN(C(=O)CCC2CCCN(c3cc(NC4CC4)ncn3)C2)C1` (centres undefined), the RP-LC retention time worked out at 666 s.
The same measure for `CC1(C(=O)NCc2ccc(F)cc2)CN(S(C)(=O)=O)CC(=O)N1Cc1ccccc1Cl` (centres undefined): 848 s; for `Cc1ccc(CNC(=O)c2cc3c(=O)n(C)ccc3n2C)o1`: 668 s.
The same measure for `c1ccc(OCCC2CCN(Cc3ccc4[nH]ccc4c3)C2)cc1` (centres undefined): 726 s; for `COc1cccc(CNC(=O)C2(C)CCCN(C(=O)Nc3cc(Cl)ccc3OC)C2)c1` (centres undefined): 990 s.
The same measure for `OC[C@@H]1CN(Cc2ccccn2)C[C@H]1c1nc(-c2cccnc2)no1`: 551 s.
For the molecule `CN(C)C(=O)c1ccc2c(c1)N(CC(=O)NCc1cccc(Cl)c1)C(=O)C1CCCCN21` (centres undefined), the RP-LC retention time turned out to be 619 s.
As for `CCC(C)(C)NC(=O)c1ccc2c(c1)N(C(=O)NC)CC2`, the figure is 705 s.
As for `CC(C)NC(=O)c1ccc(OCC2CCN(C(=O)c3ccccc3)CC2)cc1`, the figure is 828 s.
The same measure for `CCN1CCN(c2cc(C)nc3nc(-c4ccc(C(C)(C)C)cc4)nn23)CC1`: 677 s; for `O=C(Cc1ccc(Cl)cc1)N1CCN(c2cnn3cnnc3c2)CC1`: 656 s.
`CC1(C(=O)NC2CCCCCC2)CN(S(C)(=O)=O)CC(=O)N1Cc1ccc(Cl)cc1` (centres undefined) gave an RP-LC retention time of 946 s.
The same measure for `CS(=O)(=O)N1CCC(C(=O)NCc2ccc(Cl)cc2)Oc2ccccc21` (centres undefined): 1010 s; for `COc1ccc(-c2nc(-c3ccc4c(c3)oc(=O)n4C)no2)c(OC)c1`: 959 s.
The same measure for `Cn1c(CCNC(=O)c2cccc(C(F)(F)F)c2)nc2cccnc21`: 664 s; for `CN1CCN(CCc2ccc(Cl)c(Cl)c2)CC1`: 668 s.
The same measure for `CSc1ccc(NC(=O)NC2CCN(c3ccc(F)cc3)C2=O)cc1` (centres undefined): 847 s; for `CNc1nc(NCc2ccc(NC(=O)c3ccc(F)cc3)cc2)c2ccccc2n1`: 692 s; for `COc1ccc(C(C)NC(=O)COc2ccc(NC(=O)C3CC3)cn2)cc1OC` (centres undefined): 689 s.
